From patent US20250382332A1, “NOVEL ALPHA-FACTOR BASED PEPTIDES WITH ANTIFUNGAL ACTIVITY” (INVAIO SCIENCES, INC., priority 2024, published 2025)
Peptide text beside a SMILES is read from it.

Test system: Botrytis cinerea (B05.10)
Assay: Resazurin antifungal assay of 180 alpha-factor peptide variants towards Botrytis (Example 2)
Type: cell-based
Settings: % inhibition of fungal growth, Botrytis conidia, resazurin; for Inhibition at 10 μM: peptide 10 μM; for Inhibition at 20 μM: peptide 20 μM; for Inhibition at 50 μM: peptide 50 μM; for Inhibition at 100 μM: peptide 100 μM; for Inhibition at 15 μM: peptide 15 μM
Procedure, shortened: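 Resazurin viability read-out (570/620 nm fluorescence) after a 24 h, 20° C incubation of B05.10 conidia, 5000 per well, with peptide at final 10-100 μM. Growth inhibition (%) was derived by subtracting conidia-only fluorescence; four replicates per treatment.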

CC[C@H](C)[C@H](NC(=O)[C@H](CCCNC(=N)N)NC(=O)[C@H](CC(C)C)NC(=O)[C@H](Cc1c[nH]c2ccccc12)NC(=O)[C@H](CCC(N)=O)NC(=O)[C@@H](N)Cc1c[nH]c2ccccc12)C(=O)N[C@@H](CCCCN)C(=O)N[C@@H](CO)C(=O)NCC(=O)N[C@@H](CCC(N)=O)C(=O)NCC(=O)N[C@@H](CCSC)C(=O)N[C@@H](Cc1ccc(O)cc1)C(=O)O [compound 73] (H-WQWLRIKSGQGMY-OH; N-terminus and C-terminus assumed)
Inhibition at 10 μM: <90%
Inhibition at 20 μM: <90%
Inhibition at 50 μM: 100%
Inhibition at 100 μM: 100%

CSCC[C@H](NC(=O)[C@@H]1CCCN1C(=O)[C@H](CCC(N)=O)NC(=O)CNC(=O)[C@@H]1CCCN1C(=O)[C@H](Cc1c[nH]cn1)NC(=O)[C@H](CC(C)C)NC(=O)[C@H](CCCCN)NC(=O)[C@@H](NC(=O)[C@H](Cc1ccccc1)NC(=O)[C@H](Cc1c[nH]cn1)NC(=O)[C@@H](N)Cc1c[nH]c2ccccc12)C(C)C)C(=O)N[C@@H](Cc1ccc(O)cc1)C(=O)O [compound 74] (H-WHFVKLHPGQPMY-OH; N-terminus and C-terminus assumed)
Inhibition at 10 μM: <90%
Inhibition at 20 μM: <90%
Inhibition at 50 μM: 100%
Inhibition at 100 μM: 100%

CC[C@H](C)[C@H](NC(=O)[C@H](Cc1c[nH]c2ccccc12)NC(=O)[C@H](Cc1c[nH]cn1)NC(=O)[C@@H](N)CCCCN)C(=O)N[C@@H](CCCNC(=N)N)C(=O)N[C@@H](CC(C)C)C(=O)N[C@@H](Cc1c[nH]c2ccccc12)C(=O)N1CCC[C@H]1C(=O)NCC(=O)N[C@@H](CCC(N)=O)C(=O)N1CCC[C@H]1C(=O)N[C@@H](CCSC)C(=O)N[C@@H](Cc1ccc(O)cc1)C(=O)O [compound 75] (H-KHWIRLWPGQPMY-OH; N-terminus and C-terminus assumed)
Inhibition at 10 μM: <90%
Inhibition at 15 μM: <90%
Inhibition at 20 μM: 92.02%
Inhibition at 50 μM: 100%
Inhibition at 100 μM: 100%

CSCC[C@H](NC(=O)[C@H](CO)NC(=O)[C@H](C)NC(=O)CNC(=O)[C@@H]1CCCN1C(=O)[C@H](CCCCN)NC(=O)[C@H](CC(C)C)NC(=O)[C@H](CCCNC(=N)N)NC(=O)[C@H](CC(C)C)NC(=O)[C@H](Cc1c[nH]c2ccccc12)NC(=O)[C@H](Cc1c[nH]cn1)NC(=O)[C@@H](N)Cc1c[nH]c2ccccc12)C(=O)N[C@@H](Cc1ccc(O)cc1)C(=O)O [compound 76] (H-WHWLRLKPGASMY-OH; N-terminus and C-terminus assumed)
Inhibition at 10 μM: <90%
Inhibition at 15 μM: <90%
Inhibition at 20 μM: 97.59%
Inhibition at 50 μM: 100%
Inhibition at 100 μM: 100%

CC[C@H](C)[C@H](NC(=O)[C@H](Cc1c[nH]c2ccccc12)NC(=O)[C@H](Cc1c[nH]cn1)NC(=O)[C@@H]1CCCN1)C(=O)N[C@@H](CCCCN)C(=O)N[C@@H](CC(C)C)C(=O)N[C@@H](Cc1c[nH]cn1)C(=O)N[C@H](C(=O)NCC(=O)N[C@@H](CCC(N)=O)C(=O)N1CCC[C@H]1C(=O)N[C@@H](CCSC)C(=O)N[C@@H](Cc1ccc(O)cc1)C(=O)O)[C@@H](C)O [compound 77] (H-PHWIKLHTGQPMY-OH; N-terminus and C-terminus assumed)
Inhibition at 10 μM: <90%
Inhibition at 20 μM: <90%
Inhibition at 50 μM: 100%
Inhibition at 100 μM: 99.74%

CSCC[C@H](NC(=O)[C@@H]1CCCN1C(=O)[C@H](CCC(N)=O)NC(=O)CNC(=O)[C@@H]1CCCN1C(=O)[C@H](CCCCN)NC(=O)[C@H](Cc1ccccc1)NC(=O)[C@H](CC(N)=O)NC(=O)[C@H](CC(C)C)NC(=O)[C@H](Cc1ccccc1)NC(=O)[C@H](Cc1c[nH]cn1)NC(=O)[C@@H](N)CCCCN)C(=O)N[C@@H](Cc1ccc(O)cc1)C(=O)O [compound 78] (H-KHFLNFKPGQPMY-OH; N-terminus and C-terminus assumed)
Inhibition at 10 μM: <90%
Inhibition at 20 μM: <90%
Inhibition at 50 μM: 100%
Inhibition at 100 μM: 100%

CC[C@H](C)[C@H](NC(=O)[C@H](CC(=O)O)NC(=O)[C@H](CCCNC(=N)N)NC(=O)[C@@H](N)Cc1c[nH]c2ccccc12)C(=O)N[C@@H](CCCNC(=N)N)C(=O)N[C@@H](CC(C)C)C(=O)N[C@@H](CCCCN)C(=O)N[C@@H](CCCCN)C(=O)NCC(=O)N[C@@H](CCC(N)=O)C(=O)N1CCC[C@H]1C(=O)N[C@@H](CCSC)C(=O)N[C@@H](Cc1ccc(O)cc1)C(=O)O [compound 79] (H-WRDIRLKKGQPMY-OH; N-terminus and C-terminus assumed)
Inhibition at 10 μM: <90%
Inhibition at 20 μM: <90%
Inhibition at 50 μM: 100%
Inhibition at 100 μM: 100%

CSCC[C@H](NC(=O)[C@@H]1CCCN1C(=O)[C@H](CCC(N)=O)NC(=O)CNC(=O)[C@@H]1CCCN1C(=O)[C@H](CCCCN)NC(=O)[C@H](Cc1ccccc1)NC(=O)[C@H](CCCNC(=N)N)NC(=O)[C@H](CC(C)C)NC(=O)[C@@H](NC(=O)[C@H](Cc1c[nH]cn1)NC(=O)[C@@H](N)CCCCN)[C@@H](C)O)C(=O)N[C@@H](Cc1ccc(O)cc1)C(=O)O [compound 80] (H-KHTLRFKPGQPMY-OH; N-terminus and C-terminus assumed)
Inhibition at 10 μM: <90%
Inhibition at 15 μM: <90%
Inhibition at 20 μM: 99.56%
Inhibition at 50 μM: 100%
Inhibition at 100 μM: 100%

CC[C@H](C)[C@H](NC(=O)[C@H](Cc1c[nH]c2ccccc12)NC(=O)[C@H](Cc1c[nH]cn1)NC(=O)[C@@H](N)CCCCN)C(=O)N[C@@H](CCCCN)C(=O)N[C@@H](CC(C)C)C(=O)N[C@@H](CCCCN)C(=O)N[C@@H](CC(N)=O)C(=O)NCC(=O)N[C@@H](CCC(N)=O)C(=O)N1CCC[C@H]1C(=O)N[C@@H](CCSC)C(=O)N[C@@H](Cc1ccc(O)cc1)C(=O)O [compound 81] (H-KHWIKLKNGQPMY-OH; N-terminus and C-terminus assumed)
Inhibition at 10 μM: <90%
Inhibition at 15 μM: <90%
Inhibition at 20 μM: 99.51%
Inhibition at 50 μM: 100%
Inhibition at 100 μM: 100%

CSCC[C@H](NC(=O)[C@@H]1CCCN1C(=O)[C@H](CCC(N)=O)NC(=O)CNC(=O)[C@@H](NC(=O)[C@H](CCCCN)NC(=O)[C@H](CC(C)C)NC(=O)[C@H](CO)NC(=O)CNC(=O)[C@H](Cc1c[nH]c2ccccc12)NC(=O)[C@H](Cc1c[nH]cn1)NC(=O)[C@@H](N)Cc1c[nH]c2ccccc12)C(C)C)C(=O)N[C@@H](Cc1ccc(O)cc1)C(=O)O [compound 82] (H-WHWGSLKVGQPMY-OH; N-terminus and C-terminus assumed)
Inhibition at 10 μM: <90%
Inhibition at 20 μM: <90%
Inhibition at 50 μM: 100%
Inhibition at 100 μM: 100%

CSCC[C@H](NC(=O)[C@@H]1CCCN1C(=O)[C@H](CCC(N)=O)NC(=O)CNC(=O)[C@@H]1CCCN1C(=O)[C@H](CCCCN)NC(=O)[C@H](CC(C)C)NC(=O)[C@H](CCCNC(=N)N)NC(=O)[C@H](CC(C)C)NC(=O)[C@@H](NC(=O)[C@H](Cc1c[nH]cn1)NC(=O)[C@@H](N)CCCCN)[C@@H](C)O)C(=O)N[C@@H](Cc1ccc(O)cc1)C(=O)O [compound 83] (H-KHTLRLKPGQPMY-OH; N-terminus and C-terminus assumed)
Inhibition at 10 μM: <90%
Inhibition at 15 μM: <90%
Inhibition at 20 μM: 99.92%
Inhibition at 50 μM: 100%
Inhibition at 100 μM: 100%

CSCC[C@H](NC(=O)[C@H](Cc1c[nH]cn1)NC(=O)[C@@H](N)CCCCN)C(=O)N[C@@H](CC(C)C)C(=O)N[C@@H](CCCNC(=N)N)C(=O)N[C@@H](Cc1ccccc1)C(=O)N[C@@H](CCCCN)C(=O)N1CCC[C@H]1C(=O)NCC(=O)N[C@@H](CCC(N)=O)C(=O)N1CCC[C@H]1C(=O)N[C@@H](CCSC)C(=O)N[C@@H](Cc1ccc(O)cc1)C(=O)O [compound 84] (H-KHMLRFKPGQPMY-OH; N-terminus and C-terminus assumed)
Inhibition at 10 μM: <90%
Inhibition at 15 μM: <90%
Inhibition at 20 μM: 97.08%
Inhibition at 50 μM: 100%
Inhibition at 100 μM: 100%

CSCC[C@H](NC(=O)[C@@H]1CCCN1C(=O)[C@H](CCC(=O)O)NC(=O)CNC(=O)[C@@H]1CCCN1C(=O)[C@H](CCCCN)NC(=O)[C@H](Cc1ccccc1)NC(=O)[C@H](CCCCN)NC(=O)[C@H](CC(C)C)NC(=O)[C@H](Cc1ccccc1)NC(=O)[C@H](Cc1c[nH]cn1)NC(=O)[C@@H](N)Cc1c[nH]c2ccccc12)C(=O)N[C@@H](Cc1ccc(O)cc1)C(=O)O [compound 85] (H-WHFLKFKPGEPMY-OH; N-terminus and C-terminus assumed)
Inhibition at 10 μM: <90%
Inhibition at 20 μM: <90%
Inhibition at 50 μM: 100%
Inhibition at 100 μM: 100%
